Target: Artemisia annua β-farnesene synthase (SEQ ID NO: 111) variant FS_C_8 F11S/V24D/L18I/M35T/T196S/Y288F/T319S/R348K/T385A/I434T/T446N/I460V/V467I (parent coding se (Artemisia annua, UniProt Q9FXY7))
Test: Steady-state kinetics of purified farnesene synthase variant FS_C_8
Assay type: biochemical
Conditions: purified enzyme

Chain of Artemisia annua β-farnesene synthase (SEQ ID NO: 111) variant FS_C_8 F11S/V24D/L18I/M35T/T196S/Y288F/T319S/R348K/T385A/I434T/T446N/I460V/V467I (parent coding se (Q9FXY7 whole entry F11S/L18I/V24D/M35T/T196S/Y288F/T319S/R348K): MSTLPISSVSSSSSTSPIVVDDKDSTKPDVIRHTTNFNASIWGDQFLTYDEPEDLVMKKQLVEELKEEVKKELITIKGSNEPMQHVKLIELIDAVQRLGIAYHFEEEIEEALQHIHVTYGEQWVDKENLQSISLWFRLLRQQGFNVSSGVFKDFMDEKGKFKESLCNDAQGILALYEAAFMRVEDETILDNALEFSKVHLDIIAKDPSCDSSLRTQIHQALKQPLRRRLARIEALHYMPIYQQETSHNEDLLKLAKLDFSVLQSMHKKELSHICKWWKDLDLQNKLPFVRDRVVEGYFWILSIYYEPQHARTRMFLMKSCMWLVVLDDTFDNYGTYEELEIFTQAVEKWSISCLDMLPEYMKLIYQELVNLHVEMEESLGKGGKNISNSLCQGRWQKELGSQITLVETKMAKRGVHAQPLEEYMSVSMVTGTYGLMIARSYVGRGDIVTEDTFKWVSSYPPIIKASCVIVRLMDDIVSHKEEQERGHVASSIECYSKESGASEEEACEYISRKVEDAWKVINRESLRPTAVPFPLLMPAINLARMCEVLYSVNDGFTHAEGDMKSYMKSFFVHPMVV

CC(C)=CCC/C(C)=C/CC/C(C)=C/CO[P@@](=O)(O)OP(=O)(O)O (stereo in doubt) [FPP, farnesyl diphosphate]
Km: 1.55 ± 0.76 µM

Reference: patent publication US8236512B1, “Methods of developing terpene synthase variants” (Amyris, Inc., priority 2011, dated 2012)
